This is an account of results in US9707244B2, “Compositions and methods for treating conditions that affect epidermis” (Gencia Corporation, priority 2013, dated 2017).

Assay [1] deals with C57BL/6J mice. Description: Forced treadmill endurance test. The class given is in vivo. The settings on record: 10, 20, 30 mg/kg p.o. once daily for 30 days. On the procedure:
Group Setting: C57BL/6J mice were randomly assigned into five groups with different treatment started with balanced full-paw and fore-paw grip strength. Seventy five female mice were dosed at 4 PM for 30 consecutive days (qd). • 1. Vehicle (p.o. via oral gavage once daily for 30 days, n=15) • 2. Creatine (300 mg/kg, p.o. via oral gavage once daily for 30 days, n=15) • 3. Mitocreatine (10 mg/kg, p.o. via oral gavage once daily for 30 days, n=15) • 4. Mitocreatine (20 mg/kg, p.o. via oral gavage once daily for 30 days, n=15) • 5. Mitocreatine (30 mg/kg, p.o. via oral gavage once daily for 30 days, n=15). 75 mice (group 1-5) were tested on the treadmill with a previously optimized protocol as described below. The mice were habituized to the treadmill at two separate occasions, with a habituation protocol. Mice were allowed to acclimate to the testing room for at least 30 min before tested. Mice were initially placed on a treadmill running at 5 m/min for 2 minutes. The treadmill belt was set horizontally. The treadmill speed was then increased to 20 m/min in […] at steps of 5 m/min in every 10 sec with the shocking grid set at 0.2 mA. Mice were allowed to run for 20 minutes. […] The total running time until exhaustion was recorded. […] Data were expressed as Mean±S.E.M. and analyzed with one-way ANOVA followed by Bonferroni test compared to vehicle group, *P<0.05, **P<0.01 (FIG. 32).

Assay [2] has as its system BJ human fibroblast cells. Description: Survival of fibroblasts treated with chemotherapeutic agents (DAPI fluorescence). The settings on record: 48 hours, added simultaneously. Format: cell-based. As to the method: Fibroblasts were incubated with increasing amounts of Mitocreatine and certain anti-neoplastic agents, such as Cetuximab, Gemcitabine and Temozolomide. After incubation, cells were washed and the number of adherent (i.e. surviving) cells was assessed by DAPI fluorescence, which was measured utilizing a plate reader (PHERA Star FS from BMG Labtech). For these experiments two kinds of cells were used. Either the Human hepatocellular liver carcinoma cell line HepG2, or the BJ human fibroblast cells, which are established from normal human foreskin. […] Mitocreatine and the antineoplastic agent were added simultaneously.

Assay [3] has as its system EpiDerm Full Thickness 400 (EFT-400) tissues. The assay can be described thus: Mattek full-thickness skin model (EFT-400) skin thickness. Format: cell-based. The following applies: 25 nM with corticosteroid, 14 days; on average; p<0.001. As to the method: Following the protocol of Schoepe, we used the FTSM model to determine if co-treatment with Mitocreatine would reduce the loss in skin thickness produced by glucocorticoids.
2.5 mL of EpiDerm Full Thickness 400 (EFT-400) medium was dispensed into each well of the four 6-well plates aseptically in the tissue culture hood. The plates containing the EFT-400 tissues were removed from their plastic packaging and transferred using sterile forceps into the 6-well plates containing the 2.5 mL of EFT-400 media, making sure that no agarose adheres to the insert and that the media makes full contact with the underside of the tissue insert membrane (no air bubbles under the insert). The apical surface of the tissue should remain exposed to air (no media should be added to the side of the insert).
The tissues were equilibrated overnight at 37° C., 5% CO2. Treatment conditions are listed below in Table 5.
Day 2-13: The plates were visually examined and the media containing the test compounds was replenished each day.
Day 15: The inserts were dislodged from the support and the tissue carefully removed from the support with a scalpel.
The tissues were placed in 50 mL conical tubes containing 10% phosphate buffered formalin and sent for sectioning, histological processing and H&E staining Slides were visualized using a Leica Stereoscope equipped with a digital camera. Images were acquired and measured using ExoLabs software. Data was tabulated in Excel and the results were analyzed.

Assay [4] concerns ARPE-19 cells, a retinal pigmented epithelial cell line. The assay can be described thus: XF24 oxygen consumption in senescent ARPE-19 cells. The following applies: twenty-four hours after treatment; increasing concentrations. Format: cell-based, human. On the procedure: In the present invention ARPE-19 cells were used to evaluate whether Mitocreatine improves mitochondrial parameters and reduces ROS in a cell model of AMD. The cells were prematurely senescenced according to the protocol of Glotin et al. (2008). […] Cells were plated in a XF24 (Seahorse Biosciences) plate for analysis of mitochondrial activities. Twenty-four hours before analysis in the XF24 instrument, cells were treated with increasing concentrations on mitocreatine and vehicle. Twenty-four hours after treatment basal oxygen consumption rates (OCR) were assayed. […] Cells were plated in a XF24 (Seahorse Biosciences) plate for analysis of mitochondrial activities. Twenty-four hours before analysis in the XF24 instrument, cells were treated with increasing concentrations on mitocreatine and vehicle. Twenty-four hours after treatment FCCP-stimulated oxygen consumption rates (maximal OCR) were assayed.

On to `CN(CC(=O)NCCC[P+](c1ccccc1)(c1ccccc1)c1ccccc1)C(=N)N.Cl.[Cl-]` [Mitocreatine, N^2-[ammonio(imino)methyl]-N^2-methyl-N-[3-(triphenylphosphonio)propyl] glycinamide dichloride], for which the “endurance (total running time)” value in assay [1] is “Increases Endurance”. The survival of fibroblasts result in assay [2] (Gemcitabine (80 μM)), in assay [2] (Temozolomide (1 mM)) and in assay [2] (high concentrations of Cetuximab) was “improved the survival” each time. In addition, the “improvement of skin thickness” value in assay [3] is 50%. Besides, in assay [4], the basal oxygen consumption entry is on record as “dose-dependent increase”. The “maximal oxygen consumption (FCCP-stimulated)” value in assay [4] is on record as “dose-dependent increase”.
